Our source for the Ki and IC50 values is patent US5338752A, “Substituted 2-imidazolone derivatives, their preparation and pharmaceutical compositions” (SK&F Laboratories Ltd., priority 1990, dated 1994).

The target in test [1] is T1, [^3 H]iloprost binding to human platelet membranes (Homo sapiens, UniProt P43119).
T1 construct: Membranes were prepared from outdated platelet-rich plasma concentrates obtained from the Blood Transfusion Service; from tissue; host or cells: human platelets (outdated platelet-rich plasma concentrates from the Blood Transfusion Service)
In words: Inhibition of [^3 H]iloprost binding to human platelet membranes. The following applies: [^3 H]iloprost 10 nM; pH 7.4; 30 min at 37° C.; calculated from IC50 for displacement. Here is the method: METHOD FOR MEASUREMENT OF KI FOR INHIBITION OF [^3 H]ILOPROST BINDING TO HUMAN PLATELET MEMBRANES
Membranes were prepared from outdated platelet-rich plasma concentrates obtained from the Blood Transfusion Service. The platelets were homogenised in buffer containing Tris-Cl (5 mM, pH 7.4 at 20° C.) and EDTA (0.25 mM), and then centrifuged (10 min at 26,000 g). The membrane pellet was washed twice by homogenisation in buffer containing Tris-Cl (50 mM, pH 7.4 at 20° C.) and EDTA (0.25 mM), followed by centrifugation. For measurement of [^3 H]iloprost binding, membranes (0.4-0.8 mg) were incubated in the presence of Tris-Cl (50 mM, pH 7.4 at 20° C.), MgCl2 (4 mM), EDTA (40 μM), […] (10 nM), DMSO (1.85%), and varying concentrations of the test compounds. For determination of non-specific binding, 20 μM iloprost was included. The tubes (triplicates for each condition) were set up on ice, and then incubated for 30 min at 37° C. The incubations were terminated by rapid filtration on Whatman GF/B filters using a Brandel Harvester. The filters were washed and then counted for radioactivity. The Ki of the test compounds for inhibition of binding of [^3 H] iloprost to human platelet membranes was calculated from the IC50 for displacement of [^3 H]iloprost binding.

Test [2] has as its system washed human platelets. The test can be described thus: Aggregation of washed human platelets (stimulus 1 μM U46619). The following applies: Platelet; aspirin-treated washed human platelets; compound added 2 min before 1 μM U46619; assessed 4 min after stimulus; 37° C. The test is classed as cell-based. As to the method:
METHOD FOR MEASUREMENT OF AGGREGATION OF WASHED HUMAN PLATELETS
Platelets were prepared from freshly drawn human blood. Blood was collected into acid citrate anticoagulant, centrifuged (5 min at 500 g), and the upper layer of platelet-rich plasma was removed. This platelet-rich plasma was incubated with aspirin (100 μM) for 10 min at 37° C. and then centrifuged (15 min at 200 g). The platelet pellet was resuspended (at approx. 1.5×10^8 cells/ml) in medium containing NaCl (145 mM), KCl (5 mM), MgCl2 (1 mM), CaCl2 (0.2 mM), Hepes (10 mM, ph 7.4 at 37° C.), glucose (10 mM), apyrase (10 μg/ml). Aggregation was monitored (as a change in optical density) at 37° C. in a 4 channel aggregometer (PAP-4 from Biodata Corp.). Fibrinogen (1 mg/ml) and CaCl2 (1 mM) were added to aliquots of platelets that were continuously stirred. The test compound (or 0.1% DMSO vehicle) was added 2 min before the aggregatory stimulus (1 μM U46619). The extent of aggregation was assessed 4 min after addition of the stimulus, and was calculated as % of the control response in the absence of test compound. Dose-response curves were constructed for measurement of IC50 values for each compound.

Molecules are shown by their SMILES.

T1 sequence (P43119 whole entry, the tested form may be a part): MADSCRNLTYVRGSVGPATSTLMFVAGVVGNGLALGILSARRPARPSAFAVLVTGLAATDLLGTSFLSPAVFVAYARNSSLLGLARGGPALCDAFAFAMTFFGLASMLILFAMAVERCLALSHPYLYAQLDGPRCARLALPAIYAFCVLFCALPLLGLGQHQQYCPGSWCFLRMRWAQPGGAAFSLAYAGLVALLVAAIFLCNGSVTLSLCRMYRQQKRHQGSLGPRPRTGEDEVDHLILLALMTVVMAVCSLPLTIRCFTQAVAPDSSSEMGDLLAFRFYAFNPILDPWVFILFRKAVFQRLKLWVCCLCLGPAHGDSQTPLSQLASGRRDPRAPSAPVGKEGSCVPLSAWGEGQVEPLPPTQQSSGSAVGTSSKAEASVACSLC

For orientation: Ki means the equilibrium dissociation constant of an inhibitor or competing ligand from its target. By IC50 is commonly meant the concentration that gives 50% inhibition. Read a low IC50 as greater potency. On to `O=c1n(CCCCCCCS(=O)(=O)O)c(-c2ccccc2)c(-c2ccccc2)n1-c1ccccc1` [Example 1, Sodium 7(3,4,5-triphenyl-2-oxo-2,3-dihydroimidazol-1-yl)-heptanesulphonate], for which the Ki in test [1] was 8 µM. Also, inhibition in test [2] was half-maximal at 0.25 µM (IC50).

For the molecule `CCOP(C)(=O)CCCCCCCn1c(-c2ccccc2)c(-c2ccccc2)n(-c2ccccc2)c1=O` (centres unmarked) [Example 4, Ethyl 7-(3,4,5-triphenyl-2-oxo-2,3-dihydroimidazol-1-yl)methylphosphinate], the inhibitory constant (Ki) in test [1] is 19 µM. In test [2], this molecule came in with a concentration for half-maximal inhibition (IC50) of 21 µM.

On to `O=c1n(CCCCCCCP(=O)(O)O)c(-c2ccccc2)c(-c2ccccc2)n1-c1ccccc1` [Example 3, 7-(3,4,5-Triphenyl-2-oxo-2,3-dihydroimidazol-1-yl)-heptanephosphonic acid], for which the inhibitory constant (Ki) in test [1] was 1.29 µM. Also, 43 µM corresponded to half-maximal inhibition in test [2] (IC50).

In the case of `CCOP(=O)(CCCCCCCn1c(-c2ccccc2)c(-c2ccccc2)n(-c2ccccc2)c1=O)OCC` [Example 2, Diethyl 7-(3,4,5-triphenyl-2-oxo-2,3-dihydroimidazol-1-yl)heptanephosphonate], the inhibition constant Ki in test [1] was 30 µM. Moreover, the IC50 in test [2] worked out at 5.5 µM.
